Reference: ChEMBL document CHEMBL1146703, “Mannopeptimycin esters and carbonates, potent antibiotic agents against drug-resistant bacteria” (2004)

How the values were obtained:
[1] = system: Escherichia coli; assay: Antibacterial activity against Escherichia coli at </=64 ug/mL; No activity; assay type: functional, organism-based
[2] = system: Enterococcus faecalis; assay: Antibacterial activity against Enterococcus faecalis; assay type: functional
[3] = system: Staphylococcus aureus; assay: Antibacterial activity against Staphylococcus aureus; assay type: functional

MIC [1] | MIC [2] | MIC [3] | Compound
No activity | – | – | CCCC(CCC)C(=O)OC[C@H]1O[C@H](N2C(N)NC[C@H]2[C@H](O)[C@H]2NC(=O)[C@H]([C@@H](O)[C@@H]3CNC(N)N3)NC(=O)[C@@H](Cc3ccc(O[C@H]4O[C@H](CO)[C@@H](O[C@H]5O[C@H](CO)[C@@H](O)[C@H](O)[C@@H]5O)[C@H](O)[C@@H]4O)cc3)NC(=O)[C@H]([C@@H](C)c3ccccc3)NC(=O)CNC(=O)[C@H](CO)NC2=O)[C@@H](O)[C@@H](O)[C@@H]1O (some centres not stated)
No activity | > 64 µg/mL | > 64 µg/mL | CCCCCC(=O)OC[C@H]1O[C@H](N2C(N)NC[C@H]2[C@H](O)[C@H]2NC(=O)[C@H]([C@@H](O)[C@@H]3CNC(N)N3)NC(=O)[C@@H](Cc3ccc(O[C@H]4O[C@H](CO)[C@@H](O[C@H]5O[C@H](CO)[C@@H](O)[C@H](O)[C@@H]5O)[C@H](O)[C@@H]4O)cc3)NC(=O)[C@H]([C@@H](C)c3ccccc3)NC(=O)CNC(=O)[C@H](CO)NC2=O)[C@@H](O)[C@@H](O)[C@@H]1O (some centres not stated)
No activity | > 64 µg/mL | > 64 µg/mL | C[C@@H](c1ccccc1)[C@@H]1NC(=O)CNC(=O)[C@H](COC(=O)CCC2CCCC2)NC(=O)[C@@H]([C@@H](O)[C@@H]2CNC(N)N2[C@H]2O[C@H](CO)[C@@H](O)[C@H](O)[C@@H]2O)NC(=O)[C@H]([C@@H](O)[C@@H]2CNC(N)N2)NC(=O)[C@@H](Cc2ccc(O[C@H]3O[C@H](CO)[C@@H](O[C@H]4O[C@H](CO)[C@@H](O)[C@H](O)[C@@H]4O)[C@H](O)[C@@H]3O)cc2)NC1=O (some centres not stated)
No activity | – | – | C[C@@H](c1ccccc1)[C@@H]1NC(=O)CNC(=O)[C@H](COC(=O)Cc2ccccc2)NC(=O)[C@@H]([C@@H](O)[C@@H]2CNC(N)N2[C@H]2O[C@H](CO)[C@@H](O)[C@H](O)[C@@H]2O)NC(=O)[C@H]([C@@H](O)[C@@H]2CNC(N)N2)NC(=O)[C@@H](Cc2ccc(O[C@H]3O[C@H](CO)[C@@H](O[C@H]4O[C@H](CO)[C@@H](O)[C@H](O)[C@@H]4O)[C@H](O)[C@@H]3O)cc2)NC1=O (some centres not stated)
No activity | – | – | CCCCCC(=O)OC[C@@H]1NC(=O)[C@@H]([C@@H](O)[C@@H]2CNC(N)N2[C@H]2O[C@H](CO)[C@@H](O)[C@H](O)[C@@H]2O)NC(=O)[C@H]([C@@H](O)[C@@H]2CNC(N)N2)NC(=O)[C@@H](Cc2ccc(O[C@H]3O[C@H](CO)[C@@H](O[C@H]4O[C@H](CO)[C@@H](O)[C@H](O)[C@@H]4O)[C@H](O)[C@@H]3O)cc2)NC(=O)[C@H]([C@@H](C)c2ccccc2)NC(=O)CNC1=O (some centres not stated)
No activity | – | – | CCCCCCC(=O)OC[C@@H]1NC(=O)[C@@H]([C@@H](O)[C@@H]2CNC(N)N2[C@H]2O[C@H](CO)[C@@H](O)[C@H](O)[C@@H]2O)NC(=O)[C@H]([C@@H](O)[C@@H]2CNC(N)N2)NC(=O)[C@@H](Cc2ccc(O[C@H]3O[C@H](CO)[C@@H](O[C@H]4O[C@H](CO)[C@@H](O)[C@H](O)[C@@H]4O)[C@H](O)[C@@H]3O)cc2)NC(=O)[C@H]([C@@H](C)c2ccccc2)NC(=O)CNC1=O (some centres not stated)
No activity | – | – | CCCC(CCC)C(=O)OC[C@@H]1NC(=O)[C@@H]([C@@H](O)[C@@H]2CNC(N)N2[C@H]2O[C@H](CO)[C@@H](O)[C@H](O)[C@@H]2O)NC(=O)[C@H]([C@@H](O)[C@@H]2CNC(N)N2)NC(=O)[C@@H](Cc2ccc(O[C@H]3O[C@H](CO)[C@@H](O[C@H]4O[C@H](CO)[C@@H](O)[C@H](O)[C@@H]4O)[C@H](O)[C@@H]3O)cc2)NC(=O)[C@H]([C@@H](C)c2ccccc2)NC(=O)CNC1=O (some centres not stated)
No activity | – | – | C[C@@H](c1ccccc1)[C@@H]1NC(=O)CNC(=O)[C@H](CO)NC(=O)[C@@H]([C@@H](O)[C@@H]2CNC(N)N2[C@H]2O[C@H](COC(=O)Cc3ccccc3)[C@@H](O)[C@H](O)[C@@H]2O)NC(=O)[C@H]([C@@H](O)[C@@H]2CNC(N)N2)NC(=O)[C@@H](Cc2ccc(O[C@H]3O[C@H](CO)[C@@H](O[C@H]4O[C@H](CO)[C@@H](O)[C@H](O)[C@@H]4O)[C@H](O)[C@@H]3O)cc2)NC1=O (some centres not stated)
